Test results: PubChem BioAssay (NCI)
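Where inhibition never reached the appropriate level, the endpoint shown equals the highest concentration tested. Otherwise, values were interpolated linearly from a five-concentration, 48-hour dose response in 96-well plates. TGI: concentration producing complete growth inhibition.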

Assays:
Test in all cases: NCI anticancer screen, dose series, 48 h
SF-295 CNS = system: SF-295 CNS
A549 NSCLC = system: A549 NSCLC
HT29 colon = system: HT29 colon
KM12 colon = system: KM12 colon
UACC-257 melanoma = system: UACC-257 melanoma
UO-31 renal = system: UO-31 renal
HCT-15 colon = system: HCT-15 colon
PC-3 prostate = system: PC-3 prostate
SF-539 CNS = system: SF-539 CNS
DU-145 prostate = system: DU-145 prostate
SW-620 colon = system: SW-620 colon
COLO 205 colon = system: COLO 205 colon
U251 CNS = system: U251 CNS
NCI/ADR-RES ovarian = system: NCI/ADR-RES ovarian
NCI-H23 lung = system: NCI-H23 lung
786-0 renal = system: 786-0 renal
LOX IMVI melanoma = system: LOX IMVI melanoma
TK-10 renal = system: TK-10 renal
NCI-H226 lung = system: NCI-H226 lung
SF-268 CNS = system: SF-268 CNS
SR leukemia = system: SR leukemia
OVCAR-8 ovarian = system: OVCAR-8 ovarian
SNB-75 CNS = system: SNB-75 CNS
T-47D breast = system: T-47D breast
OVCAR-5 ovarian = system: OVCAR-5 ovarian
CCRF-CEM leukemia = system: CCRF-CEM leukemia
SK-MEL-28 melanoma = system: SK-MEL-28 melanoma
NCI-H522 lung = system: NCI-H522 lung
MCF7 breast = system: MCF7 breast
BT-549 breast = system: BT-549 breast
HCC-2998 colon = system: HCC-2998 colon
ACHN renal = system: ACHN renal
OVCAR-4 ovarian = system: OVCAR-4 ovarian
MOLT-4 leukemia = system: MOLT-4 leukemia
HOP-92 NSCLC = system: HOP-92 NSCLC
SK-MEL-2 melanoma = system: SK-MEL-2 melanoma
SK-OV-3 ovarian = system: SK-OV-3 ovarian
UACC-62 melanoma = system: UACC-62 melanoma
IGROV1 ovarian = system: IGROV1 ovarian
RXF 393 renal = system: RXF 393 renal
OVCAR-3 ovarian = system: OVCAR-3 ovarian
SN12C renal = system: SN12C renal
CAKI-1 renal = system: CAKI-1 renal
SNB-19 CNS = system: SNB-19 CNS
NCI-H460 lung = system: NCI-H460 lung
MDA-MB-231 breast = system: MDA-MB-231 breast
M14 melanoma = system: M14 melanoma
MDA-N = system: MDA-N
HS 578T breast = system: HS 578T breast
SK-MEL-5 melanoma = system: SK-MEL-5 melanoma
MDA-MB-435 = system: MDA-MB-435
HCT-116 colon = system: HCT-116 colon
EKVX NSCLC = system: EKVX NSCLC
HOP-62 NSCLC = system: HOP-62 NSCLC
MALME-3M melanoma = system: MALME-3M melanoma
RPMI-8226 leukemia = system: RPMI-8226 leukemia
HL-60(TB) leukemia = system: HL-60(TB) leukemia
K-562 leukemia = system: K-562 leukemia

In the case of `COC(=O)C(C(=O)C(=O)Nc1ccccc1C#N)c1nc2ccc([N+](=O)[O-])cc2[nH]c1=O` (centres undefined), the TGI (SF-295 CNS) is reported as over 100 µM, the TGI (A549 NSCLC) is reported as over 100 µM and the TGI (HT29 colon) is reported as over 100 µM. The TGI (KM12 colon) was over 100 µM, the TGI (UACC-257 melanoma) was over 100 µM and the TGI (UO-31 renal) was over 100 µM. The TGI (HCT-15 colon) was over 100 µM, the TGI (PC-3 prostate) was over 100 µM and the TGI (SF-539 CNS) was over 100 µM. The TGI (DU-145 prostate) was over 100 µM, the TGI (SW-620 colon) was over 100 µM and the TGI (COLO 205 colon) was over 100 µM. It also gave a TGI (U251 CNS) of over 100 µM, a TGI (NCI/ADR-RES ovarian) of over 100 µM and a TGI (NCI-H23 lung) of over 100 µM. The TGI (786-0 renal) was over 100 µM, the TGI (LOX IMVI melanoma) was over 100 µM and the TGI (TK-10 renal) was over 100 µM. It also gave a TGI (NCI-H226 lung) of over 100 µM, a TGI (SF-268 CNS) of over 100 µM and a TGI (SR leukemia) of over 100 µM. It also gave a TGI (OVCAR-8 ovarian) of over 100 µM, a TGI (SNB-75 CNS) of over 100 µM and a TGI (T-47D breast) of over 100 µM. For the same compound, the TGI (OVCAR-5 ovarian) was over 100 µM, the TGI (CCRF-CEM leukemia) was over 100 µM and the TGI (SK-MEL-28 melanoma) was over 100 µM. The TGI (NCI-H522 lung) was over 100 µM, the TGI (MCF7 breast) was over 100 µM and the TGI (BT-549 breast) was over 100 µM. For the same compound, the TGI (HCC-2998 colon) was over 100 µM, the TGI (ACHN renal) was over 100 µM and the TGI (OVCAR-4 ovarian) was over 100 µM. The TGI (MOLT-4 leukemia) was over 100 µM, the TGI (HOP-92 NSCLC) was over 100 µM and the TGI (SK-MEL-2 melanoma) was over 100 µM. For the same compound, the TGI (SK-OV-3 ovarian) was over 100 µM, the TGI (UACC-62 melanoma) was over 100 µM and the TGI (IGROV1 ovarian) was over 100 µM. The TGI (RXF 393 renal) was over 100 µM, the TGI (OVCAR-3 ovarian) was over 100 µM and the TGI (SN12C renal) was over 100 µM. It also gave a TGI (CAKI-1 renal) of over 100 µM, a TGI (SNB-19 CNS) of over 100 µM and a TGI (NCI-H460 lung) of over 100 µM. The TGI (MDA-MB-231 breast) was over 100 µM, the TGI (M14 melanoma) was over 100 µM and the TGI (MDA-N) was over 100 µM. The TGI (HS 578T breast) was over 100 µM, the TGI (SK-MEL-5 melanoma) was over 100 µM and the TGI (MDA-MB-435) was over 100 µM. For the same compound, the TGI (HCT-116 colon) was over 100 µM, the TGI (EKVX NSCLC) was over 100 µM and the TGI (HOP-62 NSCLC) was over 100 µM. For the same compound, the TGI (MALME-3M melanoma) was over 100 µM.

`COC1=CC(=O)c2c(cc(COP(=O)(OCC3OC(n4cc(F)c(=O)[nH]c4=O)CC3O)N(C)CCCCCl)n2C)C1=O` (centres undefined) showed a TGI (SF-295 CNS) of 1.36 µM, a TGI (A549 NSCLC) of 6.27 µM and a TGI (HT29 colon) of over 40.7 µM. For the same compound, the TGI (KM12 colon) was 97.9 µM, the TGI (UACC-257 melanoma) was over 47.5 µM and the TGI (UO-31 renal) was over 69.3 µM. The TGI (HCT-15 colon) was over 86.4 µM, the TGI (PC-3 prostate) was 22.7 µM and the TGI (DU-145 prostate) was 33.3 µM. For the same compound, the TGI (SW-620 colon) was over 59.9 µM, the TGI (COLO 205 colon) was over 39.8 µM and the TGI (U251 CNS) was 37.7 µM. It also gave a TGI (NCI/ADR-RES ovarian) of over 40.6 µM, a TGI (NCI-H23 lung) of 17.7 µM and a TGI (786-0 renal) of over 69.2 µM. The TGI (LOX IMVI melanoma) was 14.7 µM, the TGI (TK-10 renal) was over 100 µM and the TGI (NCI-H226 lung) was 47.1 µM. It also gave a TGI (SF-268 CNS) of 16.1 µM, a TGI (SR leukemia) of over 92.7 µM and a TGI (OVCAR-8 ovarian) of over 73.3 µM. For the same compound, the TGI (T-47D breast) was 36.2 µM, the TGI (OVCAR-5 ovarian) was 41.1 µM and the TGI (CCRF-CEM leukemia) was over 100 µM. It also gave a TGI (SK-MEL-28 melanoma) of over 68.8 µM, a TGI (NCI-H522 lung) of 19.1 µM and a TGI (MCF7 breast) of 1.84 µM. For the same compound, the TGI (BT-549 breast) was over 100 µM, the TGI (ACHN renal) was over 100 µM and the TGI (OVCAR-4 ovarian) was over 34.8 µM. For the same compound, the TGI (RPMI-8226 leukemia) was over 19.8 µM, the TGI (MOLT-4 leukemia) was over 54 µM and the TGI (HOP-92 NSCLC) was 12.3 µM. For the same compound, the TGI (SK-MEL-2 melanoma) was 56.6 µM, the TGI (SK-OV-3 ovarian) was over 79.8 µM and the TGI (UACC-62 melanoma) was 1.79 µM. It also gave a TGI (IGROV1 ovarian) of 23.7 µM, a TGI (HL-60(TB) leukemia) of 16 µM and a TGI (RXF 393 renal) of 4.71 µM. It also gave a TGI (OVCAR-3 ovarian) of 14.5 µM, a TGI (SN12C renal) of 1.84 µM and a TGI (SNB-19 CNS) of over 70.5 µM. It also gave a TGI (NCI-H460 lung) of 14 µM, a TGI (MDA-MB-231 breast) of 35.8 µM and a TGI (K-562 leukemia) of over 95.9 µM. It also gave a TGI (M14 melanoma) of 12.8 µM, a TGI (MDA-N) of 8.86 µM and a TGI (HS 578T breast) of 2.64 µM. The TGI (SK-MEL-5 melanoma) was 1.34 µM, the TGI (MDA-MB-435) was 5 µM and the TGI (HCT-116 colon) was 28.5 µM. It also gave a TGI (EKVX NSCLC) of 26 µM, a TGI (HOP-62 NSCLC) of 26.8 µM and a TGI (MALME-3M melanoma) of 9.97 µM.
